Experimental data taken from patent publication US5216175A, “Antimalarial analogs of artemisinin” (SRI International, priority 1990, dated 1993).
Converted amounts (≈) assume the structure as drawn. Where two headings read alike, the source gives them in different places.

Legend:
P. falciparum W-2 clone = test: In vitro antimalarial activity, P. falciparum W-2 clone; assay type: cell-based; settings: for IC50: Plasmodium falciparum; for times as potent as QHS against the W-2 clone: relative to QHS
Source text: (§1) The analogs have been segregated arbitrarily here into those compounds in which the tetracyclic skeleton is intact (Table 2) and various ring-cleaved analogs (Table 3). The activities of the conventional malaria therapeutics chloroquine, mefloquine, and pyrimethamine is included for comparison.

P. falciparum D-6 clone = test: In vitro antimalarial activity, P. falciparum D-6 clone; assay type: cell-based; settings: for IC50: Plasmodium falciparum; for times as potent as QHS against the D-6 clone: relative to QHS
Source text: as §1

[1] = Table 3, tricyclic analogs, W-2 clone, read-out: In vitro IC50 W-2 clone
[2] = Table 3, tricyclic analogs, W-2 clone
[3] = Table 3, tricyclic analogs, D-6 clone, read-out: In vitro IC50 D-6 clone
[4] = Table 3, tricyclic analogs, D-6 clone
[5] = Table 2, W-2 clone, drug-resistant strains of P. falciparum, read-out: IC50 W-2 clone
[6] = Table 2, W-2 clone, drawing 57 (artemisinin) = 100
[7] = Table 2, D-6 clone, drug-resistant strains of P. falciparum, read-out: IC50 D-6 clone
[8] = Table 2, D-6 clone, drawing 57 (artemisinin) = 100

Molecule | IC50 (P. falciparum W-2 clone; [5]) [ng/mL] | Relative potency (W-2 clone) (P. falciparum W-2 clone; [6]) | IC50 (P. falciparum D-6 clone; [7]) [ng/mL] | Relative potency (D-6 clone) (P. falciparum D-6 clone; [8]) | other results
CC1(C)OO[C@]23CCCC[C@H]2CC(=O)O[C@@H]3O1 (relative stereo) [compound 4593, (±)-Hexahydro-3,3-dimethyl-4aH,6H-1,2,4-trioxino-[6.5-j][2] benzopyran-6-one] | – | – | – | – | IC50 (P. falciparum W-2 clone; [1]): 178 ng/mL (≈ 735 nM); Relative potency (W-2 clone) (P. falciparum W-2 clone; [2]): 0.5; IC50 (P. falciparum D-6 clone; [3]): 189 ng/mL (≈ 779 nM); Relative potency (D-6 clone) (P. falciparum D-6 clone; [4]): 0.4
C[C@@H]1CC[C@H]2CC(=O)N(Cc3ccccc3)[C@@H]3O[C@@]4(C)CC[C@@H]1[C@@]23OO4 [compound 2803] | 0.07 (≈ 0.196 nM) | 171 | 0.45 (≈ 1.26 nM) | 149 | –
CCC1(CC)OO[C@]23CCCC[C@H]2[C@@H](C)C(=O)O[C@@H]3O1 (relative stereo) [compound 4583] | – | – | – | – | IC50 (P. falciparum W-2 clone; [1]): 74.2 ng/mL (≈ 261 nM); Relative potency (W-2 clone) (P. falciparum W-2 clone; [2]): 3; IC50 (P. falciparum D-6 clone; [3]): 29.7 ng/mL (≈ 105 nM); Relative potency (D-6 clone) (P. falciparum D-6 clone; [4]): 15
CCCCCCCCCCCCCC[C@H]1C(=O)O[C@@H]2O[C@@]3(C)CC[C@H]4[C@H](C)CC[C@@H]1[C@@]24OO3 [compound 2818] | 63.9 (≈ 138 nM) | .0017 | 81.3 (≈ 175 nM) | .0017 | –
CCC[C@H]1C(=O)O[C@@H]2O[C@@]3(C)CC[C@H]4[C@H](C)CC[C@@H]1[C@@]24OO3 [compound 4599] | 0.04 (≈ 0.129 nM) | 1225 | 0.22 (≈ 0.709 nM) | 550 | –
CCCC[C@H]1C(=O)O[C@@H]2OC(C)(C)OO[C@@]23CCCC[C@@H]13 (relative stereo) [compound 4590, 7-Butyl-3,3-dimethyl-4aH,6H-hexahydro-1,2,4-trioxino[6.5-j] benzopyran-6-one] | – | – | – | – | IC50 (P. falciparum W-2 clone; [1]): 11.8 ng/mL (≈ 39.5 nM); Relative potency (W-2 clone) (P. falciparum W-2 clone; [2]): 7; IC50 (P. falciparum D-6 clone; [3]): 13.9 ng/mL (≈ 46.8 nM); Relative potency (D-6 clone) (P. falciparum D-6 clone; [4]): 5
C[C@@H]1CC[C@H]2C(C)(C)C(=O)O[C@@H]3O[C@@]4(C)CC[C@@H]1[C@]32OO4 [compound 2800, (+)-Octahydro-3,12-epoxy-3,6,9,9-tetramethyl-12H-pyrano [4.3-j]-1,2-benzo dioxepin-10(3H)-one] | 25.5 (≈ 86.1 nM) | 0.63 | 20.9 (≈ 70.5 nM) | 2.1 | –
CCN(CC)CCCC(C)Nc1ccnc2cc(Cl)ccc12 (stereo not shown) [Chloroquine, reference compound] | – | 7 | – | 83 | IC50 (P. falciparum W-2 clone; read-out: IC50 W-2 clone): 31.7 ng/mL (≈ 99.1 nM); IC50 (P. falciparum D-6 clone; read-out: IC50 D-6 clone): 5.33 ng/mL (≈ 16.7 nM)
C[C@@H]1CCC[C@@]23CO[C@@](C)(CC[C@@H]12)OO3 [compound 2823] | – | – | – | – | IC50 (P. falciparum D-6 clone; [3]): 0.8 ng/mL (≈ 3.77 nM); Relative potency (D-6 clone) (P. falciparum D-6 clone; [4]): 37
CCCC(=O)OCC(CC)(CC)OOC(C)(C)C [compound 4597, 2-t-Butylperoxy-2-ethylbutyl Butyrate] | – | – | – | – | In vitro IC50 W-2 clone (P. falciparum W-2 clone; [2]): Inactive; In vitro IC50 D-6 clone (P. falciparum D-6 clone; [4]): Inactive
C[C@@H]1CC[C@H]2CC(=O)N(C)[C@@H]3O[C@@]4(C)CC[C@@H]1[C@@]23OO4 [compound 4585, (-)-Octahydro-3,6,11-trimethyl-3,12-epoxy-12H-pyridino-[4.3-j] 1,2-benzo dioxepin-10(3H)-one] | 0.42 (≈ 1.49 nM) | 502 | 2.05 (≈ 7.29 nM) | 214 | times as potent as QHS against the W-2 clone (P. falciparum W-2 clone; W-2 clone): 5 times; times as potent as QHS against the D-6 clone (P. falciparum D-6 clone; D-6 clone): 21.7 times
C[C@@H]1CC[C@H]2[C@@H](CCCc3ccccc3)C(=O)O[C@@H]3O[C@@]4(C)CC[C@@H]1[C@]32OO4 [compound 2821] | 0.11 (≈ 0.285 nM) | 445 | 0.09 (≈ 0.233 nM) | 611 | –
CC[C@H]1C(=O)O[C@@H]2O[C@@]3(C)CC[C@H]4[C@H](C)CC[C@@H]1[C@@]24OO3 [compound 4586] | 0.18 (≈ 0.607 nM) | 1226 | 0.72 (≈ 2.43 nM) | 642 | times as potent as QHS against the W-2 clone (P. falciparum W-2 clone; W-2 clone): 11.7 times; times as potent as QHS against the D-6 clone (P. falciparum D-6 clone; D-6 clone): 6.17 times
C[C@@H]1CC[C@H]2CC(=O)O[C@@H]3O[C@@]4(C)CC[C@@H]1[C@@]23OO4 [compound 4584] | 0.31 (≈ 1.16 nM) | 650 | 2.32 (≈ 8.65 nM) | 180 | –
C[C@H]1[C@@H](OOC(C)(C)C)O[C@@H]2O[C@@]3(C)CC[C@H]4[C@H](C)CC[C@@H]1[C@@]24OO3 [compound 4588] | 0.41 (≈ 1.15 nM) | 656 | 0.53 (≈ 1.49 nM) | 1054 | –
CC(C)[C@H]1C(=O)O[C@@H]2O[C@@]3(C)CC[C@H]4[C@H](C)CC[C@@H]1[C@@]24OO3 [compound 2820] | 0.58 (≈ 1.87 nM) | 84 | 0.27 (≈ 0.87 nM) | 203 | –
C[C@@H]1CC[C@H]2[C@@H](C)C(=O)O[C@@H]3O[C@@]4(C)CC[C@@H]1[C@]32OO4 [(+)-Artemisinin, reference compound] | 2.11 (≈ 7.47 nM) | 100 | 4.44 (≈ 15.7 nM) | 100 | –
C[C@@]12CC[C@H]3CCC[C@H]4CC(=O)O[C@H](O1)[C@@]34OO2 (relative stereo) [compound 4580, (±)-6,9-desmethylartemisinin] | 3.92 (≈ 15.4 nM) | 48 | 33.7 (≈ 133 nM) | 12 | –
CCO[C@H]1O[C@@H]2O[C@@]3(C)CC[C@H]4[C@H](C)CC[C@@H]([C@H]1CC)[C@@]24OO3 [compound 4598] | 0.18 (≈ 0.551 nM) | 272 | 0.22 (≈ 0.674 nM) | 550 | –
CCc1nc(N)nc(N)c1-c1ccc(Cl)cc1 [pyrimethamine, reference compound] | 121 (≈ 486 nM) | 2 | 0.35 (≈ 1.41 nM) | 1269 | –
(+)-Hexahydro-3,3,7,10α,11β-pentamethyl-4aH,6H-1,2,4-trioxino-[ 6.5-j][2] benzopyran-6-one [compound 4594] | – | – | – | – | In vitro IC50 W-2 clone (P. falciparum W-2 clone; [2]): 2.06 ng/mL; Relative potency (W-2 clone) (P. falciparum W-2 clone; [2]): 24; In vitro IC50 D-6 clone (P. falciparum D-6 clone; [4]): 5.35 ng/mL; Relative potency (D-6 clone) (P. falciparum D-6 clone; [4]): 23
CCC[C@H]1[C@@H](OCC)O[C@@H]2O[C@@]3(C)CC[C@H]4[C@H](C)CC[C@@H]1[C@@]24OO3 [compound 4600, (+)-Octahydro-3,6-dimethyl-10β-ethoxy-3,12-epoxy-9β-propyl-12H-pyrano[4.3-j]-1,2-benzodioxepine] | 0.63 (≈ 1.85 nM) | 76 | 0.39 (≈ 1.15 nM) | 120 | –
OC(c1cc(C(F)(F)F)nc2c(C(F)(F)F)cccc12)C1CCCCN1 (stereo not shown) [Mefloquine, reference compound] | 2.4 (≈ 6.34 nM) | 88 | 43.7 (≈ 116 nM) | 10 | –
(-)-Hexahydro-3,3,10a,11β-tetramethyl-4aH,6H-1,2,4-trioxino-[6.5-j]benzopyran-6-one [compound 4592] | – | – | – | – | In vitro IC50 D-6 clone (P. falciparum D-6 clone; [4]): 1.28 ng/mL; Relative potency (D-6 clone) (P. falciparum D-6 clone; [4]): 58
CCCCCC[C@H]1C(=O)O[C@@H]2O[C@@]3(C)CC[C@H]4[C@H](C)CC[C@@H]1[C@@]24OO3 [compound 2817] | 0.02 (≈ 0.0567 nM) | 550 | 0.03 (≈ 0.0851 nM) | 467 | –
C[C@@H]1CC[C@H]2CC(=O)N(CC(=O)O)[C@@H]3O[C@@]4(C)CC[C@@H]1[C@@]23OO4 [compound 2804] | – | – | 122 (≈ 376 nM) | 5.5 | –
